Key:
Assay type in all cases: in vivo
[1] = tested on: barnyardgrass (Echinochloa crus-galli); assay: Test A preemergence, barnyardgrass; conditions: Preemergence; for Barnyardgrass plant response rating: visual injury on 0 to 100 scale (0 no effect, 100 complete control), approximately 10 days; for Plant response rating, Barnyardgrass: 0 to 100 scale (0 no effect, 100 complete control)
Method in brief: (§1)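 Greenhouse pot test in a loam–sand blend; compounds delivered in a non-phytotoxic solvent carrying a surfactant, applied either as a directed spray to soil at seeding or over seedlings 2 to 10 cm high with one to two leaves.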

[2] = tested on: galium (catchweed bedstraw, Galium aparine); assay: Test A postemergence, galium; conditions: Postemergence, 0 to 100 scale (0 no effect, 100 complete control); for Galium plant response rating: visual injury vs untreated controls after approx. 10 days
Method in brief: (§2)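 Formulated with a surfactant in a non-phytotoxic solvent, compounds are applied to loam–sand pots, either to bare soil immediately after seeding (preemergence) or to seedlings of 2 to 10 cm bearing one to two leaves (postemergence).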

[3] = tested on: Ryegrass, Italian (Italian ryegrass, Lolium multiflorum); assay: Test A preemergence, Ryegrass, Italian; conditions: Preemergence; for Ryegrass, Italian plant response rating: visual injury on 0 to 100 scale (0 no effect, 100 complete control), approximately 10 days; for Plant response rating, Ryegrass, Italian: 0 to 100 scale (0 no effect, 100 complete control)
Method in brief: as §1

[4] = tested on: pigweed (Amaranthus retroflexus); assay: Test A preemergence, pigweed; conditions: for Pigweed plant response rating: visual injury on 0 to 100 scale (0 no effect, 100 complete control), approximately 10 days; for Plant response rating, Pigweed: 0 to 100 scale (0 no effect, 100 complete control)
Method in brief: as §2

[5] = tested on: pigweed (Amaranthus retroflexus); assay: Test A postemergence, pigweed; conditions: Postemergence, 0 to 100 scale (0 no effect, 100 complete control); for Pigweed plant response rating: visual injury vs untreated controls after approx. 10 days
Method in brief: as §1

[6] = tested on: barnyardgrass (Echinochloa crus-galli); assay: Test A postemergence, barnyardgrass; conditions: Postemergence, 0 to 100 scale (0 no effect, 100 complete control); for Barnyardgrass plant response rating: visual injury vs untreated controls after approx. 10 days
Method in brief: as §2

[7] = tested on: wheat (Triticum aestivum); assay: Test A postemergence, wheat; conditions: Postemergence, 0 to 100 scale (0 no effect, 100 complete control); for Wheat plant response rating: visual injury vs untreated controls after approx. 10 days
Method in brief: as §2

[8] = tested on: corn (Zea mays); assay: Test A postemergence, corn; conditions: Postemergence, 0 to 100 scale (0 no effect, 100 complete control); for Corn plant response rating: visual injury vs untreated controls after approx. 10 days
Method in brief: as §1

[9] = tested on: kochia (Bassia scoparia); assay: Test A preemergence, kochia; conditions: Preemergence; for Kochia plant response rating: visual injury on 0 to 100 scale (0 no effect, 100 complete control), approximately 10 days; for Plant response rating, Kochia: 0 to 100 scale (0 no effect, 100 complete control)
Method in brief: as §1

[10] = tested on: blackgrass (Alopecurus myosuroides); assay: Test A postemergence, blackgrass; conditions: Postemergence, 0 to 100 scale (0 no effect, 100 complete control); for Blackgrass plant response rating: visual injury vs untreated controls after approx. 10 days
Method in brief: as §1

[11] = tested on: kochia (Bassia scoparia); assay: Test A postemergence, kochia; conditions: Postemergence, 0 to 100 scale (0 no effect, 100 complete control); for Kochia plant response rating: visual injury vs untreated controls after approx. 10 days
Method in brief: as §1

[12] = tested on: ragweed (common ragweed, Ambrosia artemisiifolia); assay: Test A preemergence, ragweed; conditions: Preemergence; for Ragweed plant response rating: visual injury on 0 to 100 scale (0 no effect, 100 complete control), approximately 10 days; for Plant response rating, Ragweed: 0 to 100 scale (0 no effect, 100 complete control)
Method in brief: as §1

[13] = tested on: Ryegrass, Italian (Italian ryegrass, Lolium multiflorum); assay: Test A postemergence, Ryegrass, Italian; conditions: Postemergence, 0 to 100 scale (0 no effect, 100 complete control); for Ryegrass, Italian plant response rating: visual injury vs untreated controls after approx. 10 days
Method in brief: as §1

[14] = tested on: Foxtail, Giant (giant foxtail, Setaria faberi); assay: Test A preemergence, Foxtail, Giant; conditions: Preemergence; for Foxtail, Giant plant response rating: visual injury on 0 to 100 scale (0 no effect, 100 complete control), approximately 10 days; for Plant response rating, Foxtail, Giant: 0 to 100 scale (0 no effect, 100 complete control)
Method in brief: as §1

[15] = tested on: Foxtail, Giant (giant foxtail, Setaria faberi); assay: Test A postemergence, Foxtail, Giant; conditions: Postemergence, 0 to 100 scale (0 no effect, 100 complete control); for Foxtail, Giant plant response rating: visual injury vs untreated controls after approx. 10 days
Method in brief: as §1

[16] = tested on: ragweed (common ragweed, Ambrosia artemisiifolia); assay: Test A postemergence, ragweed; conditions: Postemergence, 0 to 100 scale (0 no effect, 100 complete control); for Ragweed plant response rating: visual injury vs untreated controls after approx. 10 days
Method in brief: as §1

[17] = 125 g ai/ha, visual injury approx. 10 days
[18] = 1000 g ai/ha, visual injury, approx. 10 days
[19] = 125 g ai/ha, visual injury, approx. 10 days
[20] = 500 g ai/ha, visual injury approx. 10 days

Cc1cc(C)c(N(S(C)(=O)=O)S(=O)(=O)C(F)(F)F)cc1-c1cc(Cl)nn(C)c1=O [Compound 46]
Barnyardgrass plant response rating ([1]; 125 g ai/ha): 0
Plant response rating, Barnyardgrass ([1]; 500 g ai/ha): 70
Plant response rating, Galium [2, 17]: 0
Galium plant response rating ([2]; 500 g ai/ha): 0
Ryegrass, Italian plant response rating ([3]; 125 g ai/ha): 50
Plant response rating, Ryegrass, Italian ([3]; 500 g ai/ha): 80
Pigweed plant response rating ([4]; 125 g ai/ha): 0
Plant response rating, Pigweed ([4]; 500 g ai/ha): 50
Plant response rating, Pigweed [5, 17]: 0
Pigweed plant response rating ([5]; 500 g ai/ha): 0
Plant response rating, Barnyardgrass [6, 17]: 0
Barnyardgrass plant response rating ([6]; 500 g ai/ha): 0
Plant response rating, Wheat [7, 17]: 0
Wheat plant response rating ([7]; 500 g ai/ha): 50
Plant response rating, Corn [8, 17]: 0
Corn plant response rating ([8]; 500 g ai/ha): 0
Kochia plant response rating ([9]; 125 g ai/ha): 0
Plant response rating, Kochia ([9]; 500 g ai/ha): 0
Plant response rating, Blackgrass [10, 17]: 0
Blackgrass plant response rating ([10]; 500 g ai/ha): 0
Plant response rating, Kochia [11, 17]: 0
Kochia plant response rating ([11]; 500 g ai/ha): 0
Ragweed plant response rating ([12]; 125 g ai/ha): 0
Plant response rating, Ragweed ([12]; 500 g ai/ha): 0
Plant response rating, Ryegrass, Italian [13, 17]: 0
Ryegrass, Italian plant response rating ([13]; 500 g ai/ha): 0
Foxtail, Giant plant response rating ([14]; 125 g ai/ha): 90
Plant response rating, Foxtail, Giant ([14]; 500 g ai/ha): 90
Plant response rating, Foxtail, Giant [15, 17]: 0
Foxtail, Giant plant response rating ([15]; 500 g ai/ha): 0
Plant response rating, Ragweed [16, 17]: 0
Ragweed plant response rating ([16]; 500 g ai/ha): 0

Cc1cc(C)c(C(=O)N2CCC(C#N)CC2)cc1NS(=O)(=O)C(F)(F)F [Compound 11]
Plant response rating, Barnyardgrass ([1]; 1000 g ai/ha): 100
Plant response rating, Galium [2, 18]: 90
Plant response rating, Ryegrass, Italian ([3]; 1000 g ai/ha): 0
Plant response rating, Pigweed ([4]; 1000 g ai/ha): 100
Plant response rating, Pigweed [5, 18]: 100
Plant response rating, Barnyardgrass [6, 18]: 90
Plant response rating, Wheat [7, 18]: 80
Plant response rating, Corn [8, 18]: 60
Plant response rating, Kochia ([9]; 1000 g ai/ha): 90
Plant response rating, Blackgrass [10, 18]: 50
Plant response rating, Kochia [11, 18]: 60
Plant response rating, Ragweed ([12]; 1000 g ai/ha): 80
Plant response rating, Ryegrass, Italian [13, 18]: 70
Plant response rating, Foxtail, Giant ([14]; 1000 g ai/ha): 100
Plant response rating, Foxtail, Giant [15, 18]: 90
Plant response rating, Ragweed [16, 18]: 80

Cc1ccc(-c2ccnn(C)c2=O)cc1NS(=O)(=O)C(F)(F)F [Compound 59]
Barnyardgrass plant response rating ([1]; 125 g ai/ha): 0
Plant response rating, Barnyardgrass ([1]; 500 g ai/ha): 90
Plant response rating, Galium [2, 17]: 80
Galium plant response rating ([2]; 500 g ai/ha): 90
Ryegrass, Italian plant response rating ([3]; 125 g ai/ha): 0
Plant response rating, Ryegrass, Italian ([3]; 500 g ai/ha): 60
Pigweed plant response rating ([4]; 125 g ai/ha): 30
Plant response rating, Pigweed ([4]; 500 g ai/ha): 60
Plant response rating, Pigweed [5, 17]: 0
Pigweed plant response rating ([5]; 500 g ai/ha): 60
Plant response rating, Barnyardgrass [6, 17]: 0
Barnyardgrass plant response rating ([6]; 500 g ai/ha): 80
Plant response rating, Wheat [7, 17]: 0
Wheat plant response rating ([7]; 500 g ai/ha): 40
Plant response rating, Corn [8, 17]: 10
Corn plant response rating ([8]; 500 g ai/ha): 40
Kochia plant response rating ([9]; 125 g ai/ha): 40
Plant response rating, Kochia ([9]; 500 g ai/ha): 90
Plant response rating, Blackgrass [10, 17]: 0
Blackgrass plant response rating ([10]; 500 g ai/ha): 70
Plant response rating, Kochia [11, 17]: 50
Kochia plant response rating ([11]; 500 g ai/ha): 70
Ragweed plant response rating ([12]; 125 g ai/ha): 0
Plant response rating, Ragweed ([12]; 500 g ai/ha): 30
Plant response rating, Ryegrass, Italian [13, 17]: 0
Ryegrass, Italian plant response rating ([13]; 500 g ai/ha): 60
Foxtail, Giant plant response rating ([14]; 125 g ai/ha): 20
Plant response rating, Foxtail, Giant ([14]; 500 g ai/ha): 70
Plant response rating, Foxtail, Giant [15, 17]: 10
Foxtail, Giant plant response rating ([15]; 500 g ai/ha): 70
Plant response rating, Ragweed [16, 17]: 20
Ragweed plant response rating ([16]; 500 g ai/ha): 60

Cc1cc(C)c(N(S(=O)(=O)C(F)(F)F)S(=O)(=O)C(F)(F)F)cc1N1CCC2(CCCC2)C1=O [Compound 280]
Plant response rating, Barnyardgrass [1, 19]: 90
Barnyardgrass plant response rating ([1]; 500 g ai/ha): 90
Plant response rating, Galium ([2]; 125 g ai/ha): 80
Plant response rating, Galium [2, 20]: 90
Plant response rating, Ryegrass, Italian [3, 19]: 100
Ryegrass, Italian plant response rating ([3]; 500 g ai/ha): 100
Plant response rating, Pigweed [4, 19]: 70
Pigweed plant response rating ([4]; 500 g ai/ha): 100
Plant response rating, Pigweed ([5]; 125 g ai/ha): 60
Plant response rating, Pigweed [5, 20]: 90
Plant response rating, Barnyardgrass ([6]; 125 g ai/ha): 20
Plant response rating, Barnyardgrass [6, 20]: 90
Plant response rating, Wheat ([7]; 125 g ai/ha): 40
Plant response rating, Wheat [7, 20]: 60
Plant response rating, Corn ([8]; 125 g ai/ha): 0
Plant response rating, Corn [8, 20]: 10
Plant response rating, Kochia [9, 19]: 40
Kochia plant response rating ([9]; 500 g ai/ha): 70
Plant response rating, Blackgrass ([10]; 125 g ai/ha): 0
Plant response rating, Blackgrass [10, 20]: 0
Plant response rating, Kochia ([11]; 125 g ai/ha): 20
Plant response rating, Kochia [11, 20]: 50
Plant response rating, Ragweed [12, 19]: 30
Ragweed plant response rating ([12]; 500 g ai/ha): 70
Plant response rating, Ryegrass, Italian ([13]; 125 g ai/ha): 40
Plant response rating, Ryegrass, Italian [13, 20]: 70
Plant response rating, Foxtail, Giant [14, 19]: 100
Foxtail, Giant plant response rating ([14]; 500 g ai/ha): 100
Plant response rating, Foxtail, Giant ([15]; 125 g ai/ha): 0
Plant response rating, Foxtail, Giant [15, 20]: 20
Plant response rating, Ragweed ([16]; 125 g ai/ha): 30
Plant response rating, Ragweed [16, 20]: 50

Reference: patent US20230278972A1, “SUBSTITUTED HALOALKYL SULFONANILIDE HERBICIDES” (FMC Corporation, priority 2020, published 2023)
